52 molecules from PubChem BioAssay AID1996 can be followed below.

Molecules are shown by their SMILES. Converted amounts (≈) assume the structure as drawn.

Broadly, the kinetic solubility is solubility judged after dilution from a stock solution rather than from solid.

The conditions of the data set: buffer; pH 7.4; 200.0 µM.
The molecule `CCN1CCN(C(=O)C(N)Cc2ccccc2)CC1` (configuration not stated) returned a kinetic solubility of 37.5 µg/mL (≈ 143 µM). In the case of `O=C1c2ccc([N+](=O)[O-])cc2C(=O)N1c1ccc([N+](=O)[O-])cn1`, the solubility (kinetic) was 41.3 µg/mL (≈ 131 µM). This solubility kinetic and that of the molecule before are within 1.5-fold of each other. `N/C(=N\O)c1cn(Cc2ccccc2Cl)c2ccccc12` showed a solubility (kinetic) of 39.4 µg/mL (≈ 131 µM). Under `COc1ccc(/C=N/NC(=O)c2ccccc2O)cc1CN1CCOCC1` stands > 55.4 µg/mL; under `CC(C)(C)OC(=O)N1CCC(CNC(=O)c2ccc(F)cc2F)CC1`, 51 µg/mL (≈ 144 µM); under `Cc1ccc(Nc2nc(-c3cccnc3)cs2)cc1Cl`, 0.3 µg/mL (≈ 0.994 µM). On to `C=CCN1C(=O)NC(=O)/C(=C/c2ccc(OCC(=O)Nc3ccc(C)cc3)cc2)C1=O`, for which the solubility (kinetic) was > 62.9 µg/mL. Under `O=c1[nH]c2ccccc2c(O)c1-c1ccccc1` stands 17.2 µg/mL (≈ 72.5 µM); under `Nc1cccc(CN2CCCC2)c1`, > 26.4 µg/mL. Under `O=C(Cc1ccc(Cl)cc1)Nc1ccc(Br)cn1` stands 1.4 µg/mL (≈ 4.3 µM). The result for `N#C/C(=C\c1cccc([N+](=O)[O-])c1)c1ccccn1` reads 3.6 µg/mL (≈ 14.3 µM). In turn, `Cc1ccc(C(=O)CN2C(=O)NC3(CCCCC3C)C2=O)s1` (configuration not stated) yielded a kinetic solubility of 33.2 µg/mL (≈ 104 µM).

Consider `O=C(CSc1nncs1)Nc1nccs1`, for which the solubility (kinetic) is > 38.7 µg/mL. `COc1ccc(Oc2ncnc3sccc23)cc1` showed a kinetic solubility of 14.9 µg/mL (≈ 57.7 µM). Consider `CCC(C)C(NC(N)=O)C(=O)NC1CCC(C)CC1` (configuration not stated), for which the solubility (kinetic) was 34.2 µg/mL (≈ 127 µM).

On to `CN(C)c1ccc(/C=N/NC(=O)CNC(=O)c2ccncc2)cc1`, for which the solubility (kinetic) was > 48.8 µg/mL. `COc1nc(NC(=O)c2ccc(F)cc2)nc(OC)c1-c1ccccc1` showed a solubility (kinetic) of 6 µg/mL (≈ 17 µM). Consider `CCCc1cnc(N2CCN(C(=O)c3ccc(F)cc3)CC2)nc1`, for which the kinetic solubility was > 49.3 µg/mL. The result for `NC1=NC(=O)C(Cc2ccccc2)S1` (configuration not stated) reads > 30.9 µg/mL.

`N#CCCN(Cc1cccs1)C(=O)Nc1ccccc1` came in with a kinetic solubility of 41.1 µg/mL (≈ 144 µM).

For `COC(=O)c1ccc(COc2ccc(/C=N/O)cc2OC)o1`, the kinetic solubility is > 45.8 µg/mL.

Molecule `O=C(/C=C/c1cccs1)N1CCN(c2ccc(F)cc2)CC1` registered a solubility (kinetic) of 3.1 µg/mL (≈ 9.8 µM). Under `COc1ccccc1NC(=O)c1c(C)nc2ccccc2c1C(=O)O` stands > 50.5 µg/mL.

Take `COc1cccc(C(O)c2nc3ccccc3n2C(C)C)c1OC` (configuration not stated): the solubility (kinetic) was > 49 µg/mL. Under `C=CCOc1ccc(C2NC(=S)NC3=C2CCc2ccccc23)cc1` (configuration not stated) stands 11.2 µg/mL (≈ 32.1 µM); under `CN(Cc1ccccc1)c1ccc(N2C(=O)CCC2=O)cc1[N+](=O)[O-]`, 38.7 µg/mL (≈ 114 µM); under `COC(=O)c1ccccc1NC(=O)c1sc(Cl)nc1C`, 44 µg/mL (≈ 142 µM). The result for `Cc1ccnc(NC(=O)c2ccc3[nH]c(=O)c(=O)[nH]c3c2)c1` reads 2.2 µg/mL (≈ 7.43 µM); that for `NS(=O)(=O)c1ccc(CCNC(=O)c2ccc3c(c2)OCO3)cc1`, > 52.3 µg/mL.

Turning to `Cc1csc(SC(C)C(=O)Nc2ccc3c(c2)OCCO3)n1` (configuration not stated), the kinetic solubility was > 50.5 µg/mL. The result for `Cc1ccc(C(=O)NC(C(=O)Nc2ccccc2)c2ccccc2)cc1` (configuration not stated) reads 1 µg/mL (≈ 2.9 µM); that for `CC(C)CNC(C)C(=O)Nc1ccc(S(N)(=O)=O)cc1` (configuration not stated), > 44.9 µg/mL; that for `COc1ccc(NC(=O)Nc2nc3ccccc3s2)cc1`, < 0.2 µg/mL. Under `CCCn1c(=O)c2[nH]cnc2n(-c2ccccc2C)c1=O` stands > 42.6 µg/mL; under `CCOc1cc(/C=C\[N+](=O)[O-])ccc1OCC(=O)N1CCOCC1`, 24.5 µg/mL (≈ 72.8 µM); under `O=C(Cc1c(F)cccc1Cl)N1CCOCC1`, > 38.7 µg/mL.

In turn, `Fc1ccc(CNC(=S)NCc2ccccc2)cc1` had a kinetic solubility of 11 µg/mL (≈ 40.1 µM).

Regarding `Cc1cc(=O)[nH]c(Nc2cccc(Cl)c2C)n1`, the solubility (kinetic) was > 37.5 µg/mL. `Cc1cccc(NC(=O)COC(=O)c2cc(C)n(C3CC3)c2C)c1` registered a solubility (kinetic) of 9.7 µg/mL (≈ 29.7 µM). The result for `COc1cc(NC(=O)C2CC3CCC2C3)c(OC)cc1Cl` (configuration not stated) reads 3.5 µg/mL (≈ 11.3 µM); that for `O=C(O)Cc1c[nH]c2ccccc12`, > 26.3 µg/mL. Molecule `CC(NS(=O)(=O)c1ccc(N)cc1)C1CC2CCC1C2` (configuration not stated) came in with a kinetic solubility of 6.8 µg/mL (≈ 23.1 µM). Under `CCc1nc2cccnc2n1-c1ccc(CC(=O)O)cc1` stands > 42.2 µg/mL; under `O=c1c2ccccc2ncn1CCOc1ccccc1[N+](=O)[O-]`, 3.2 µg/mL (≈ 10.3 µM); under `CS(=O)(=O)c1ccc(C(=O)Nc2ccccc2Cl)cc1`, > 46.5 µg/mL. For the molecule `CC1CN(C)C(C)CC1OC(=O)C(c1ccccc1)c1ccccc1` (configuration not stated), the solubility (kinetic) was determined as 42.1 µg/mL (≈ 125 µM). Under `CCN(C(=O)CSc1nc2ccccc2[nH]1)C1CCS(=O)(=O)C1` (configuration not stated) stands > 53 µg/mL; under `O=C(NCCNc1ccccc1[N+](=O)[O-])c1cc(F)c(F)cc1Cl`, 1.2 µg/mL (≈ 3.37 µM).

Regarding `O=C(Nc1ccccc1)c1ccccc1NC(=O)[C@H]1CCCC[C@H]1C(=O)O`, the solubility (kinetic) is > 55 µg/mL.

For `CCCN(CCC)S(=O)(=O)c1nc2nc(C)cc(C)n2n1`, the kinetic solubility was > 46.7 µg/mL. Under `O=C(c1ccc2ccccc2c1)N1CCCCC1` stands > 35.9 µg/mL; under `Cc1cc(C)c(S(=O)(=O)NCc2ccccn2)cc1C`, > 43.6 µg/mL.
